# Patent US20050090522A1 (priority 2001, published 2005)
# System: HIV-1
# Experiment: HIV-1 single-round infectious luciferase reporter virus (pseudotype) assay in HeLa CD4 CCR5 cells
# Format: cell-based
# Settings: for EC50: Human immunodeficiency virus 1, HeLa-CD4/CCR5, read-out: EC50 Group from TABLE 1, HeLa CD4 CCR5 cells, single-round infectious luciferase reporter virus
# Method: • Virus production—Human embryonic Kidney cell line, 293, propagated in Dulbecco's Modified Eagle Medium (Life Technologies, Gaithersburg, Md.) containing 10% fetal Bovine serum (FBS, Sigma, St. Louis, Mo.). • Virus infection—Human epithelial cell line, HeLa, expressing the HIV-1 receptors CD4 and CCR^5 was propagated in Dulbecco's Modified Eagle Medium (Life Technologies, Gaithersburg, Md.) containing 10% fetal Bovine serum (FBS, Sigma, St. Louis, Mo.) and supplemented with 0.2 mg/mL Geneticin (Life Technologies, Gaithersburg, Md.) and 0.4 mg/mL Zeocin (Invitrogen, Carlsbad, Calif.). […] Transfections were performed using lipofectAMINE PLUS reagent as described by the manufacturer (Life Technologies, Gaithersburg, Md.). Experiment • 1. Compound was added to HeLa CD4 CCR5 cells plated in 96 well plates at a cell density of 5×10^4 cells per well in 100 μl Dulbecco's Modified Eagle Medium containing 10% fetal Bovine serum at a concentration of […]. • 2. 100 μl of single-round infectious reporter virus in Dulbecco's Modified Eagle Medium was then added to the plated cells and compound at an approximate multiplicity of infection (MOI) of 0.01, resulting in a final volume of 200 μl per well and a final compound concentration of <10 μM. • 3. Samples were harvested 72 h after infection. • 4. Viral infection was monitored by measuring luciferase expression from viral DNA in the infected cells using a luciferase reporter gene assay kit (Roche Molecular Biochemicals, Indianapolis, Ind.). Infected cell supernatants were removed and 50 μl of Dulbecco's Modified Eagle Medium (without phenol red) and 50 μl of luciferase assay reagent reconstituted as described by the manufacturer (Roche Molecular Biochemicals, Indianapolis, Ind.) was added per well. Luciferase activity was then quantified by measuring luminescence using a Wallac microbeta scintillation counter. • 5. […] An EC50 provides a method for comparing the antiviral potency of the compounds of this invention. The effective concentration for fifty percent inhibition (EC50) was calculated with the Microsoft Excel Xlfit curve fitting software. For each compound, curves were generated from percent inhibition calculated at 10 different concentrations by using a four paramenter logistic model (model 205). Table 1 is the key for the data in Tables 2-4. Cytoxicity assays were conducted with the same HeLa using methodology well known in the art.
# In Table 5, X2, X4 etc. indicates the point of attachment. […] The data at 10 μM was calculated in the following manner:
# For compounds tested at concentrations less than 10 μM, the percent inhibition at 10 μM was determined by extrapolation using the XLfit curve fitting feature of the Microsoft Excel spreadsheet software. Curves were obtained from 10 data points (% inhibition determined at 10 concentrations of compound) by using a four parameter logistic model (XLfit model 205: y=A+((B−A)/(I+((C/x)^D))), where, A=minimum y, B=maximum y, C=logEC50, D=slope factor, and x and y are known data values. Extrapolations were performed with the A and B parameters unlocked. […]
SMILES,EC50,"inhibition at 10 µM (Human immunodeficiency virus 1, HeLa-CD4/CCR5, read-out: Average % inhibition at 10 μM)"
"COc1cnc(-n2ccc(COC(=O)CC(C)(C)C(=O)O)n2)c2[nH]cc(C(=O)C(=O)N3CCN(C(=O)c4ccccc4)[C@H](C)C3)c12 (stereo in doubt) [Example 295, 2,2-Dimethyl-succinic acid 4-(1-{3-[2-(4-benzoyl-3-methyl-piperazin-1-yl)-2-oxo-acetyl]-4-methoxy-1H-pyrrolo[2,3-c]pyridin-7-yl}-1H-pyrazol-3-ylmethyl) ester]",< 1000 nM,–
"C[C@@H]1CN(C(=O)c2ccccc2)CCN1C(=O)C(=O)c1c[nH]c2c(-c3cncc(NC(=O)C4OC4C(=O)O)n3)nccc12 (stereo in doubt) [Example 296, 3-(6-{3-[2-(4-Benzoyl-2-methyl-piperazin-1-yl)-2-oxo-acetyl]-1H-pyrrolo[2,3-c]pyridin-7-yl}-pyrazin-2-ylcarbamoyl)-oxirane-2-carboxylic acid]",< 1000 nM,–
"C[C@@H]1CN(C(=O)c2ccccc2)CCN1C(=O)C(=O)c1c[nH]c2c(-c3cccc(NC(=O)C4OC4C(=O)O)n3)nccc12 (stereo in doubt) [Example 297, 3-(6-{3-[2-(4-Benzoyl-2-methyl-piperazin-1-yl)-2-oxo-acetyl]-1H-pyrrolo[2,3-c]pyridin-7-yl}-pyridin-2-ylcarbamoyl)-oxirane-2-carboxylic acid]",< 1000 nM,–
"C[C@@H]1CN(C(=O)c2ccccc2)CCN1C(=O)C(=O)c1c[nH]c2c(-c3ccc(F)cc3)nccc12 [Example 1, 1-benzoyl-3-(R)-methyl-4-[(7-(4-fluorophenyl)-6-azaindol-3-yl)-oxoacetyl]-piperazine]",< 1000 nM,56%
"O=C(C(=O)N1CCN(C(=O)c2ccccc2)CC1)c1c[nH]c2c(-c3ccc(Cl)cc3)nccc12 [Example 2, 1-benzoyl-4-[(7-(4-chlorophenyl)-6-azaindol-3-yl)-oxoacetyl]piperazine]",< 1000 nM,–
"O=C(O)c1ccc(-c2nccc3c(C(=O)C(=O)N4CCN(C(=O)c5ccccc5)CC4)c[nH]c23)cc1 [Example 4, 1-benzoyl-4-[(7-(4-carboxy-phenyl)-6-azaindol-3-yl)-oxoacetyl]piperazine]",< 1000 nM,–
"CC1CN(C(=O)c2ccccc2)CCN1C(=O)C(=O)c1c[nH]c2c(-c3ccc4c(c3)OCO4)nccc12 (stereo not drawn) [Example 5, 1-benzoyl-3-methyl-4-[(7-(3,4-methylenedioxyphenyl)-6-azaindol-3-yl)-oxoacetyl]piperazine]",< 1000 nM,–
"C[C@@H]1CN(C(=O)c2ccccc2)CCN1C(=O)C(=O)c1c[nH]c2c(-c3ccco3)nccc12 [Example 6, 1-benzoyl-3-®-methyl-4-[(7-(furan-2-yl)-6-azaindol-3-yl)-oxoacetyl]piperazine]",< 1000 nM,–
"O=C(C(=O)N1CCN(C(=O)c2ccccc2)CC1)c1c[nH]c2c(-c3ccco3)nccc12 [Example 7, 1-benzoyl-4-[(7-(furan-2-yl)-6-azaindol-3-yl)-oxoacetyl] piperazine]",< 1000 nM,–
"O=C(C(=O)N1CCN(C(=O)c2ccccc2)CC1)c1c[nH]c2c(-c3cc4ccccc4o3)nccc12 [Example 8, 1-benzoyl-4-[(7-(benzofuran-2-yl)-6-azaindol-3-yl)-oxoacetyl]piperazine]",< 1000 nM,–
"C[C@@H]1CN(C(=O)c2ccccc2)CCN1C(=O)C(=O)c1c[nH]c2c(-c3cccs3)nccc12 [Example 9, 1-(benzoyl)-3-®-methyl-4-[(7-(thien-2-yl)-6-azaindol-3-yl)-oxoacetyl]piperazine]",< 1000 nM,–
"O=C(C(=O)N1CCN(C(=O)c2ccccc2)CC1)c1c[nH]c2c(-c3ccncc3)nccc12 [Example 10, 1-(benzoyl)-4-[(7-(pyridin-4-yl)-6-azaindol-3-yl)-oxoacetyl]piperazine]",< 1000 nM,–
"O=C(C(=O)N1CCN(C(=O)c2ccccc2)CC1)c1c[nH]c2c(-c3cccc4cccnc34)nccc12 [Example 11, 1-benzoyl-4-[(7-(quinolin-8-yl)-6-azaindol-3-yl)-oxoacetyl]piperazine]",< 1000 nM,–
"COc1cnc(-c2ccncc2)c2[nH]cc(C(=O)C(=O)N3CCN(C(=O)c4ccccc4)CC3)c12 [Example 14, 1-benzoyl-4-[(4-methoxy-7-(pyridin-4-yl)-6-azaindol-3-yl)-oxoacetyl]piperazine]",< 1000 nM,–
